Holding throughout (format): cell-based, human
One experiment relates to IL-4 mRNA. Nature of the experiment: IL-4 mRNA in PMA/ionomycin-activated T cells (RT-PCR). Particulars: FIG. 3. The protocol: (§1) T-cells were activated by the addition of 500 ng ionomycin and 10 ng phorbol 12-myristate 13-acetate (PMA) (Calbiochem, La Jolla, Calif.) and incubated for 48-72 h at 37° C. PMA/ionomycin-activated T-cells were treated with 0.5-50 μM Ribavirin or with 250-10000 U/ml of a control antiviral, interferon-alpha (Accurate, Westbury, N.Y.) immediately following activation and re-treated 24 h later. T-cells from each plate were used for immunofluorescence analysis and the supernatants used for extracellular cytokine measurements. Following activation, 900 μl cell supernatant from each microplate was transferred to another microplate for analysis of cell-derived cytokine production. The cells are then used in immunofluorescence analyses for intracellular cytokine levels and cytokine receptor expression. […]
(§2) The PCR reaction was performed using GeneAmp PCR kit (Perkin-Elmer Cetus, Foster City, Calif.). […] PCR products were analyzed on 2% agarose gel containing ethidium bromide. […] Equivalent loading was assessed following hybridization with a probe generated from pHE7 sense primer. Washed blots were then analyzed using Phosphorlmager.

The test system of another experiment is IL-2 (CD25) receptor. Nature of the experiment: Cell surface IL-2 receptor expression in activated T cells (FACS). Particulars: compared to control activated T cells, FIG. 4. The protocol: as §1, with “production.” for “production. The cells are then used in immunofluorescence analyses for intracellular cytokine levels and cytokine receptor expression.”
(§3) For direct staining with fluorescence-conjugated antibodies to cell surface antigens, the cells were washed twice with isotonic saline solution, pH 7.4 (Becton Dickinson, Mansfield, Mass.) and resuspended in 50 μl isotonic saline solution and split into two samples. One sample aliquot was co-stained with either PE-anti CD25/FITC-anti CD4 or PE-rat anti mouse IgG+anti-CDw124/FITC-anti CD4 mAb and non-specific fluorescence was assessed by staining the second aliquot with PE/FITC-labeled isotype-matched control monoclonal antibody. All fluorescence-labeled monoclonal antibodies were obtained from Becton Dickinson (San Jose, Calif.) except for anti-CDw124 which was obtained from Pharmingen, San Diego, Calif. […]

The subject of the next experiment is IL-2 in CD8+ T cells. Nature of the experiment: Intracellular IL-2 expression in activated CD8+ T cells (two-color flow cytometry). Particulars: PMA/ionomycin alone 81%, one experiment, FIG. 5. The protocol:
(§4) T-cells were activated by the addition of 500 ng ionomycin and 10 ng phorbol 12-myristate 13-acetate (PMA) (Calbiochem, La Jolla, Calif.) and incubated for 48-72 h at 37° C. PMA/ionomycin-activated T-cells were treated with 0.5-50 μM Ribavirin or with 250-10000 U/ml of a control antiviral, interferon-alpha (Accurate, Westbury, N.Y.) immediately following activation and re-treated 24 h later. T-cells from each plate were used for immunofluorescence analysis and the supernatants used for extracellular cytokine measurements. Following activation, 900 μl cell supernatant from each microplate was transferred to another microplate for analysis of cell-derived cytokine production. The cells are then used in immunofluorescence analyses for intracellular cytokine levels and cytokine receptor expression.
(§5) For analyses of the intracellular expression of IL-2 in CD4^+ and CD8^+ T cell subsets, T cells were first treated for the last 4 h of 48-72 h activation with 10 μg Brefeldin A (Gibco BRL, Gaithersburg, Md.) to minimize secretion of newly synthesized IL-2 into the extracellular milieu. […]
(§6) We examined whether the effect of Ribavirin on IL-2 expression was specific to CD4^+ or CD8^+ T cells. Intracellular IL-2 expression in fixed and Permeabilized activated T cells was determined by two-color flow cytometry using fluorescence-labeled antibodies to CD4 or CD8 and to IL-2. […]
On the technique in general: Flow cytometry measures light scatter and fluorescence of single cells or particles in a stream.

The test system of another experiment is IL-2. Put plainly: Extracellular IL-2 levels in PMA/ionomycin-activated T cells (ELISA or CTLL-2 bioassay). The protocol: (§7) Peripheral blood mononuclear cells (PBMCs) were isolated from the buffy coat following Ficoll-Hypaque density gradient centrifugation of 60 ml blood from healthy donors. T-cells were then purified from the PBMCs using Lymphokwik lymphocyte isolation reagent specific for T-cells (LK-25T, One Lambda, Canoga Park Calif.). An average yield of 40-60×10^6 T-cells were then incubated overnight at 37° C. in 20-30 ml RPMI-AP5 (RPMI-1640 medium (ICN, Costa Mesa, Calif.) containing 20 mM HEPES buffer, pH 7.4, 5% autologous plasma, 1% L-glutamine, 1% penicillin/streptomycin and 0.05% 2-mercaptoethanol) to remove any contaminating adherent cells. In all experiments, T-cells were washed with RPMI-AP5 and then plated on 96-well microtitre plates at a cell concentration of 1×10^6 cells/ml.
(§8) T-cells were activated by the addition of 500 ng ionomycin and 10 ng phorbol 12-myristate 13-acetate (PMA) (Calbiochem, La Jolla, Calif.) and incubated for 48-72 h at 37° C. […]
(§9) Cell-derived human cytokine concentrations were determined in cell supernatants from each microplate. Activation-induced changes in interleukin-2 (IL-2) levels were determined using a commercially available ELISA kit (R & D systems Quantikine kit, Minneapolis, Minn.) or by bioassay using the IL-2-dependent cell line, CTLL-2 (ATCC, Rockville, Md.). […]
Background: ELISA stands for enzyme-linked immunosorbent assay.

The next experiment has as its system IL-2 mRNA. Put plainly: IL-2 mRNA in PMA/ionomycin-activated T cells (RT-PCR). As to conditions: FIG. 3. The protocol: as §1, §2
In the next experiment the test system is IL-4 (CDw124) receptor. Nature of the experiment: Cell surface IL-4 receptor expression in activated T cells (FACS). As to conditions: compared to control activated T cells, FIG. 4. The protocol: as §1, with “production.” for “production. The cells are then used in immunofluorescence analyses for intracellular cytokine levels and cytokine receptor expression.”
as §3

In another experiment the test system is IFNγ mRNA. Put plainly: IFNγ mRNA in PMA/ionomycin-activated T cells (RT-PCR). As to conditions: FIG. 3. The protocol:
as §1, §2

The subject of a further experiment is TNFα. Put plainly: Extracellular TNFα levels in PMA/ionomycin-activated T cells (ELISA). The protocol: as §7, §8, §9
The subject of the next experiment is IL-4. Nature of the experiment: Extracellular IL-4 levels in PMA/ionomycin-activated T cells (ELISA). The protocol:
as §7, §8, §9

The test system of the next experiment is IL-2 in CD4+ T cells. Put plainly: Intracellular IL-2 expression in activated CD4+ T cells (two-color flow cytometry). As to conditions: PMA/ionomycin alone 82%, one experiment, FIG. 5. The protocol: as §4, §5, §6
[1] abbreviates: range 250-10000 U/ml, dose-dependent, compared to untreated activated T cells.
The mark [2] stands for this setting: 2, 5 and 10 μM following T cell activation.

Turning to interferon-α, the “effect on IL-4 mRNA” value in the experiment with IL-4 mRNA (1000, 2000 and 5000 U/ml) is listed as “increases”. In addition, in the experiment with IL-2 (CD25) receptor (250-10000 U/ml, dose-dependent), the “effect on IL-2 receptor expression” value is given as “decreased”. For the same molecule, the “percentage of IL-2-expressing CD8+ cells” value in the experiment with IL-2 in CD8+ T cells (5000 U/ml) was found to be 71%. In addition, the “maximal inhibition of IL-2 expression” value with IL-2 (setting [1]) is 33%. Besides, in the experiment on IL-2 mRNA (1000, 2000 and 5000 U/ml), the “effect on IL-2 mRNA” value is recorded as “decreases”. Besides, the “effect on IL-4 receptor expression” value with IL-4 (CDw124) receptor (250-10000 U/ml, dose-dependent) is on record as “increased”. The “effect on IFNγ mRNA” value in the experiment with IFNγ mRNA (1000, 2000 and 5000 U/ml) was “decreases”. The “maximal inhibition of TNFα expression” value in the experiment with TNFα (setting [1]) was 38%. The “maximal increase of extracellular IL-4” value in the experiment on IL-4 (10000 U/ml) was 26%. Further, the “percentage of IL-2-expressing CD4+ cells” value in the experiment with IL-2 in CD4+ T cells (5000 U/ml) worked out at 81%.
`NC(=O)c1ncn([C@@H]2O[C@H](CO)[C@@H](O)[C@H]2O)n1` [Ribavirin, 1-β-D-ribofuranosyl-1,2,4-triazole-3-carboxamide]: the “effect on IL-4 mRNA” value with IL-4 mRNA (setting [2]) is listed as “decreases”. Moreover, in the experiment with IL-2 (CD25) receptor (1-50 μM), the “effect on activated levels of IL-2 receptor” value is “little effect”. For the same molecule, in the experiment on IL-2 in CD8+ T cells (10 μM), the “percentage of CD8+ expressing IL-2” value was found to be 91%. In addition, the “maximal augmentation of activated levels of IL-2” value with IL-2 (at 5 μM (dose range 0.5-50 μM), PMA/ionomycin-activated T cells, 48-72 h, representative experiment, FIG. 1) is 30%. Moreover, in the experiment with IL-2 mRNA (setting [2]), the “effect on IL-2 mRNA” value was “elevates”. Also, the “effect on activated levels of IL-4 receptor” value with IL-4 (CDw124) receptor (1-50 μM) was “little effect”. Further, the “effect on IFNγ mRNA” value in the experiment on IFNγ mRNA (setting [2]) is on record as “has no effect”. Further, in the experiment on TNFα (at 20 μM (dose range 0.5-50 μM), PMA/ionomycin-activated T cells, 48-72 h, representative experiment, FIG. 1), the “maximal augmentation of activated levels of TNFα” value was 36%. Also, the inhibition at 2 µM in the experiment on IL-4 (Homo sapiens, T-cell, at 2 μM, read-out: peak inhibition of activated levels of IL-4) was 74%. Further, in the experiment on IL-2 in CD4+ T cells (10 μM), the “percentage of CD4+ T cells expressing IL-2” value was 91%.

In general, inhibition refers to the relative decrease from the control value, in per cent.

Source of the values: patent US20030212015A1, “Specific modulation of Th1/Th2 cytokine expression by ribavirin in activated T-lymphocytes” (priority 1996, published 2003).
